Columns and labels:
ABUTH (Velvetleaf) = assay: Postemergence herbicidal evaluation; assay type: in vivo, Abutilon theophrasti; settings: postemergence
Method in brief: (§1)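 Seedlings grown about two weeks were sprayed at 40 psi with compound dispersed in 50/50 acetone/water plus 0.5% TWEEN 20, at about 0.0156 to 0.500 kg/ha. Plants were kept in the greenhouse and scored 4–5 weeks later on a 0–9 visual scale against untreated controls.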

AMBEL (Ragweed, Common) [1] = assay: Postemergence herbicidal evaluation; assay type: in vivo, Ambrosia artemisifolia; settings: postemergence
Method in brief: as §1

[2] = tested on: CHEAL (Lambsquarters, Common); assay: Postemergence herbicidal evaluation; assay type: in vivo, Chenopodium album; settings: postemergence
Method in brief: as §1

ECHCG (Barnyardgrass) = assay: Postemergence herbicidal evaluation; assay type: in vivo, Echinochloa crus-galli; settings: postemergence
Method in brief: as §1

[3] = tested on: GLXMAW (Soybean, Williams); assay: Postemergence herbicidal evaluation; assay type: in vivo, Glycine max, (L.) Merr. cv Williams; settings: postemergence
Method in brief: as §1

ORYSAT (Rice, Tebonnet) = assay: Postemergence herbicidal evaluation; assay type: in vivo, Oryza sativa, (L.) Tebonnet; settings: postemergence
Method in brief: as §1

ZEAMX (Corn, Field) = assay: Postemergence herbicidal evaluation; assay type: in vivo, Zea mays; settings: postemergence
Method in brief: as §1

AMBEL (Ragweed, Common) [4] = assay: Preemergence herbicidal evaluation; assay type: in vivo, Ambrosia artemisifolia; settings: preemergence, rated 4-5 weeks after treatment, 0-9 scale
Method in brief: (§2)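 Preemergence soil application of compound, sprayed in aqueous acetone at rates equivalent to about 0.0156 to 0.500 kg per hectare onto freshly sown cups. Plant response was judged by eye on a 0-9 scale four to five weeks later.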

CASOB (Sicklepod) = assay: Preemergence herbicidal evaluation; assay type: in vivo, Cassia obtusifolia; settings: preemergence, rated 4-5 weeks after treatment, 0-9 scale
Method in brief: as §2

[5] = tested on: CHEAL (Lambsquarters, Common); assay: Preemergence herbicidal evaluation; assay type: in vivo, Chenopodium album; settings: preemergence, rated 4-5 weeks after treatment, 0-9 scale
Method in brief: as §2

GALAP (Galium) = assay: Preemergence herbicidal evaluation; assay type: in vivo, Galium aparine; settings: preemergence, rated 4-5 weeks after treatment, 0-9 scale
Method in brief: as §2

CYPSE (Flatsedge) [6] = assay: Preemergence weed control under flooded paddy conditions; assay type: in vivo, Cyperus serotinus; settings: rated 3-4 weeks after treatment
Method in brief: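 Values are visual 0-9 scores against a control for a preemergence application into paddy flood water at about 0.0313 to 0.500 kg/ha. Greenhouse duration was three to four weeks.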

CYPIR (Rice Flatsedge) = assay: Postemergence weed control under flooded paddy conditions; assay type: in vivo, Cyperus iria; settings: postemergence weeds, rated 3 to 4 weeks after treatment
Method in brief: (§3)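 Weeds 3 to 5 cm tall and rice seedlings at the 1.5 to 2.5 leaf stage were flooded, with water held 1.5 to 3 cm above the soil. Compounds in 50/50 v/v aqueous/acetone went into the flood water at about 0.0313 to 0.500 kg/ha. Visual 0-9 ratings versus control were made 3 to 4 weeks later.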

CYPSE (Flatsedge) [7] = assay: as above; assay type: in vivo, Cyperus serotinus; settings: postemergence weeds, rated 3 to 4 weeks after treatment
Method in brief: as §3

## CCOC(=O)CN1C(=O)C(CC(=O)OCCF)SC1=Nc1cc(-n2c(=O)cc(C(F)(F)F)n(C)c2=O)c(F)cc1Cl (centres unmarked) [Compound 82, 2-{{2-Chloro-5-[3,6-dihydro-3-methyl-2,6-dioxo-4-(trifluoromethyl)-1(2H)-pyrimidinyl]-4-fluoro-phenyl}imino}-4-oxo-3,5-thiazolidinediacetic acid, 3-ethyl 2-fluoroethyl ester]
ABUTH (Velvetleaf); rate 0.0158 kg/ha
  ABUTH herbicidal rating: 9.0
ABUTH (Velvetleaf); rate 0.0315 kg/ha
  ABUTH herbicidal rating: 9.0
ABUTH (Velvetleaf); rate 0.0630 kg/ha
  ABUTH herbicidal rating: 9.0
AMBEL (Ragweed, Common) [1]; rate 0.0158 kg/ha
  AMBEL herbicidal rating: 9.0
AMBEL (Ragweed, Common) [1]; rate 0.0315 kg/ha
  AMBEL herbicidal rating: 9.0
AMBEL (Ragweed, Common) [1]; rate 0.0630 kg/ha
  AMBEL herbicidal rating: 9.0
[2]; rate 0.0158 kg/ha
  CHEAL herbicidal rating: 7.0
[2]; rate 0.0315 kg/ha
  CHEAL herbicidal rating: 9.0
[2]; rate 0.0630 kg/ha
  CHEAL herbicidal rating: 9.0
ECHCG (Barnyardgrass); rate 0.0158 kg/ha
  ECHCG herbicidal rating: 9.0
ECHCG (Barnyardgrass); rate 0.0315 kg/ha
  ECHCG herbicidal rating: 9.0
ECHCG (Barnyardgrass); rate 0.0630 kg/ha
  ECHCG herbicidal rating: 9.0
[3]; rate 0.0158 kg/ha
  GLXMAW herbicidal rating: 8.5
[3]; rate 0.0315 kg/ha
  GLXMAW herbicidal rating: 9.0
[3]; rate 0.0630 kg/ha
  GLXMAW herbicidal rating: 9.0
ORYSAT (Rice, Tebonnet); rate 0.0158 kg/ha
  ORYSAT herbicidal rating: 3.0
ORYSAT (Rice, Tebonnet); rate 0.0315 kg/ha
  ORYSAT herbicidal rating: 3.0
ORYSAT (Rice, Tebonnet); rate 0.0630 kg/ha
  ORYSAT herbicidal rating: 8.5
ZEAMX (Corn, Field); rate 0.0158 kg/ha
  ZEAMX herbicidal rating: 8.5
ZEAMX (Corn, Field); rate 0.0315 kg/ha
  ZEAMX herbicidal rating: 8.5
ZEAMX (Corn, Field); rate 0.0630 kg/ha
  ZEAMX herbicidal rating: 9.0
AMBEL (Ragweed, Common) [4]; 0.0156 kg/ha
  AMBEL rating: 0.0
AMBEL (Ragweed, Common) [4]; 0.0313 kg/ha
  AMBEL rating: 2.0
AMBEL (Ragweed, Common) [4]; 0.0625 kg/ha
  AMBEL rating: 3.0
AMBEL (Ragweed, Common) [4]; 0.1250 kg/ha
  AMBEL rating: 9.0
AMBEL (Ragweed, Common) [4]; 0.2500 kg/ha
  AMBEL rating: 9.0
CASOB (Sicklepod); 0.0156 kg/ha
  CASOB rating: 0.0
CASOB (Sicklepod); 0.0313 kg/ha
  CASOB rating: 0.0
CASOB (Sicklepod); 0.0625 kg/ha
  CASOB rating: 3.0
CASOB (Sicklepod); 0.1250 kg/ha
  CASOB rating: 9.0
CASOB (Sicklepod); 0.2500 kg/ha
  CASOB rating: 9.0
[5]; 0.0156 kg/ha
  CHEAL rating: 9.0
[5]; 0.0313 kg/ha
  CHEAL rating: 9.0
[5]; 0.0625 kg/ha
  CHEAL rating: 9.0
[5]; 0.1250 kg/ha
  CHEAL rating: 9.0
[5]; 0.2500 kg/ha
  CHEAL rating: 9.0
GALAP (Galium); 0.0156 kg/ha
  GALAP rating: 0.0
GALAP (Galium); 0.0313 kg/ha
  GALAP rating: 0.0
GALAP (Galium); 0.0625 kg/ha
  GALAP rating: 0.0
GALAP (Galium); 0.1250 kg/ha
  GALAP rating: 9.0
GALAP (Galium); 0.2500 kg/ha
  GALAP rating: 9.0
CYPSE (Flatsedge) [6]; 0.0313 kg/ha
  CYPSE herbicidal effect rating: 0.0
CYPSE (Flatsedge) [6]; 0.0625 kg/ha
  CYPSE herbicidal effect rating: 0.0
CYPSE (Flatsedge) [6]; 0.1250 kg/ha
  CYPSE herbicidal effect rating: 2.0
CYPSE (Flatsedge) [6]; 0.2500 kg/ha
  CYPSE herbicidal effect rating: 4.0
CYPIR (Rice Flatsedge); Rate 0.0313 kg/ha
  Herbicidal rating CYPIR: 0.0
CYPIR (Rice Flatsedge); Rate 0.0625 kg/ha
  Herbicidal rating CYPIR: 0.0
CYPIR (Rice Flatsedge); Rate 0.1250 kg/ha
  Herbicidal rating CYPIR: 3.0
CYPIR (Rice Flatsedge); Rate 0.2500 kg/ha
  Herbicidal rating CYPIR: 3.0
CYPSE (Flatsedge) [7]; Rate 0.0313 kg/ha
  Herbicidal rating CYPSE: 0.0
CYPSE (Flatsedge) [7]; Rate 0.0625 kg/ha
  Herbicidal rating CYPSE: 0.0
CYPSE (Flatsedge) [7]; Rate 0.1250 kg/ha
  Herbicidal rating CYPSE: 2.0
CYPSE (Flatsedge) [7]; Rate 0.2500 kg/ha
  Herbicidal rating CYPSE: 4.0

Reference: US20020137929A1, “1 - (3-heterocyclylphenyl) isothiourea, -isourea, -guanidine and -amidine herbicidal agents” (Intellectual Property Department, BASF Aktiengesellschaft, priority 1998, published 2002)
